Measured values reported in patent US20040009927A1, “Methods and compounds for reducing biofilm formulation” (priority 2002, published 2004).

System: MG1655 and its csrA mutant TRMG1655, cya mutants and cya wild type
Conditions: cAMP 2 or 5 mM in growth medium; in most cases

With Nc1ncnc2c1ncn2[C@@H]1O[C@@H]2COP(=O)(O)O[C@H]2[C@H]1O [cAMP, cyclic AMP] the “biofilm formation by cya wild type strains” value was “increased biofilm formation”.
